# According to patent publication US20160235717A1, “BENDAMUSTINE PHARMACEUTICAL COMPOSITIONS” (LUITPOLD PHARMACEUTICALS, INC., priority 2013, published 2016):
# Structures can show the parent of a compound that is named as a salt.
# Assays:
# [1] = Dissolution of bendamustine HCl in DMSO/water at 15° C. (Example 6); format: physicochemical
# Procedure: 37.5 ml of water was placed in a glass beaker and mixing was initiated at about 350 rpm. 2.1266 g mannitol added and mixed for about 5 minutes. About 12.5 ml of DMSO was added and solution brought to about 15° C. 1.2672 g of bendamustine HCl added and mixed. A milky solution was the result.
# The sample was not used for analysis purposes, however, 3 ml of DMSO was added and the sample was cloudy. Another 3 ml of DMSO was added and the solution started to clear up. The addition of DMSO corresponds to about 35% DMSO.
# [2] = cited from earlier work
# [3] = Water uptake of anhydrous Bendamustine HCl; format: physicochemical
# Procedure: Bendamustine HCl was an anhydrous form with a water content level of nmt 1.0%. The Bendamustine HCl used herein was not the Form 1 polymorph and was at least similar to an anhydrous version of the Form 2 polymorph. A sample of Bendamustine HCl anhydrous (with a thickness of about 2 mm was is saturated in water after 60 minutes and the water level reached about 4.7-4.8%. Exposing the Bendamustine HCl to atmospheric conditions for 1 hour caused the % water to increase to about 4.5%, corresponding to the monohydrate form (MW Bendamustine HCl=394.7 g/mol and H2O=18 g/mol; [(394.7+18)/394.7]100=104.6%).
SMILES,"solubility in 75% water ([1]; 25 mg/ml with mannitol 42.5 mg/ml in DMSO 25% v/v in water, about 15° C. (sample 6IB130709-1), a milky solution resulted)","solubility limit in the preferred Treanda® formulation ([2]; at 5° C., disclosed in U.S. Pat. No. 8,436,190B2) [mg/mL]","water level when saturated in water ([3]; anhydrous sample, thickness about 2 mm, after 60 minutes)","% water after exposure to atmospheric conditions ([3]; exposure for 1 hour, corresponds to the monohydrate form)","DMSO content optimal for dissolution ([1]; at 15° C., DMSO added to sample 6IB130709-1 until the solution started to clear up)","solubility in DMSO ([2]; at 25° C., has been reported) [mg/mL]","solubility in water ([2]; at 25° C., has been reported) [mg/mL]"
Cn1c(CCCC(=O)O)nc2cc(N(CCCl)CCCl)ccc21 [Bendamustine HCl],not found to be soluble,27,4.7-4.8%,about 4.5%,–,–,–
"Cn1c(CCCC(=O)O)nc2cc(N(CCCl)CCCl)ccc21 [bendamustine, 4-[5-[Bis(2-chloroethyl)amino]-1-methylbenzimidazol-2-yl]butanoic acid]",–,–,–,–,more than 35%,79,15
